The values that follow are results of earlier work, collected in patent US20220401390A1, “TREATMENTS OF DIABETIC MACULAR EDEMA AND IMPAIRED VISUAL ACUITY” (KALVISTA PHARMACEUTICALS LIMITED, priority 2019, published 2022).

One data set has as its system diabetic rats. Particulars: cited from earlier work.
For a further data set, the system named is patients with DME. As to conditions: clinical trials, after one year; cited from earlier work.

Regarding `N=C(N)c1ccc(CNC(=O)c2cnn(Cc3ccccc3)c2)cc1` [ASP-440], the “Retinal vascular permeability and retinal blood flow abnormalities” value in the data set on diabetic rats was “ameliorated”.
As to “aflibercept: anti-VEGF therapy for DME currently in use”, the “Efficacy compared with laser therapy” value in the data set with patients with DME is on record as “more effective than laser therapy”.
In the case of “bevacizumab: anti-VEGF therapy for DME currently in use”, in the data set with patients with DME, the “Efficacy compared with laser therapy” value is recorded as “more effective than laser therapy”.
Regarding pegaptanib, the “Efficacy compared with laser therapy” value in the data set on patients with DME is given as “more effective than laser therapy”.

B1: ranibizumab: anti-VEGF therapy for DME currently in use (antibody, chains of the INN, looked up, V domains shown)
VH: EVQLVESGGGLVQPGGSLRLSCAASGYDFTHYGMNWVRQAPGKGLEWVGWINTYTGEPTYAADFKRRFTFSLDTSKSTAYLQMNSLRAEDTAVYYCAKYPYYYGTSHWYFDVWGQGTLVTVSS
VL: DIQLTQSPSSLSASVGDRVTITCSASQDISNYLNWYQQKPGKAPKVLIYFTSSLHSGVPSRFSGSGSGTDFTLTISSLQPEDFATYYCQQYSTVPWTFGQGTKVEIK
modifications: Fab
notes: anti-VEGF therapy for DME currently in use
B1: the “Efficacy compared with laser therapy” value in the data set on patients with DME is given as “more effective than laser therapy”.
